Test results reported in the NIST ThermoML archive (doi:10.1021/je049661s).

How the values were obtained:
[1] = 101.3 kPa, Liquid
[2] = xn = mol fraction of the nth substance listed; conditions: 101.3 kPa, Liquid

C1CCCCC1 [cyclohexane]
[1]
Conditions | mass density [kg/m3] | viscosity [mPa·s]
298.15 K | 773.9 | 0.8945
303.15 K | 768.6 | 0.8284
308.15 K | 761.2 | 0.7637

C1CCCCC1 [cyclohexane] + O=C1CCCCC1
[2], x1 = 1
Conditions | mass density [kg/m3] | viscosity [mPa·s]
298.15 K | 773.9 | 0.8945
303.15 K | 768.6 | 0.8284
308.15 K | 761.2 | 0.7637

C1CCCCC1 [cyclohexane] + O=[N+]([O-])c1ccccc1
[2], x1 = 1
Conditions | mass density [kg/m3] | viscosity [mPa·s]
298.15 K | 773.9 | 0.8945
303.15 K | 768.6 | 0.8284
308.15 K | 761.2 | 0.7637

O=C1CCCCC1 [cyclohexanone]
[1]
Conditions | mass density [kg/m3] | viscosity [mPa·s]
298.15 K | 941 | 2.021
303.15 K | 937.4 | 1.806
308.15 K | 936.5 | 1.585

O=C1CCCCC1 [cyclohexanone] + C1CCCCC1
[2]
Conditions | mass density, 298.15 K [kg/m3] | mass density, 303.15 K [kg/m3] | mass density, 308.15 K [kg/m3] | viscosity, 298.15 K [mPa·s] | viscosity, 303.15 K [mPa·s] | viscosity, 308.15 K [mPa·s]
x2 = 0 | 941 | 937.4 | 936.5 | 2.021 | 1.806 | 1.585
x2 = 0.0964 | 921.6 | 917.9 | 916.6 | 1.852 | 1.661 | 1.485
x2 = 0.2003 | 901.3 | 897.6 | 895.7 | 1.682 | 1.522 | 1.384
x2 = 0.2916 | 883.8 | 880.2 | 878.3 | 1.541 | 1.406 | 1.296
x2 = 0.3895 | 866 | 862.8 | 860.3 | 1.403 | 1.294 | 1.203
x2 = 0.4894 | – | 845.5 | 842.6 | – | 1.184 | 1.112
x2 = 0.4895 | 848.9 | – | – | 1.275 | – | –
x2 = 0.5886 | – | 828.7 | 825.6 | – | 1.084 | 1.025
x2 = 0.5887 | 832.5 | – | – | 1.163 | – | –
x2 = 0.6957 | 815.4 | 811.6 | 807.5 | 1.063 | 0.9925 | 0.9408
x2 = 0.7951 | 800.3 | 796.3 | 791.3 | 0.9917 | 0.9237 | 0.8704
x2 = 0.8968 | – | 781.8 | 775.5 | – | 0.8707 | 0.8101
x2 = 0.8969 | 786.5 | – | – | 0.9386 | – | –

O=C1CCCCC1 [cyclohexanone] + O=[N+]([O-])c1ccccc1
[2], x1 = 1
Conditions | mass density [kg/m3] | speed of sound [m/s] | viscosity [mPa·s]
298.15 K | 941 | 1847.7 | 2.021
303.15 K | 937.4 | – | 1.806
308.15 K | 936.5 | – | 1.585

O=[N+]([O-])c1ccccc1 [nitrobenzene]
[1]
Conditions | mass density [kg/m3] | speed of sound [m/s] | viscosity [mPa·s]
298.15 K | 1198.5 | 1648.4 | 1.686
303.15 K | 1193.6 | – | 1.619
308.15 K | 1191.1 | – | 1.554

O=[N+]([O-])c1ccccc1 [nitrobenzene] + C1CCCCC1
[2]
Conditions | mass density, 298.15 K [kg/m3] | mass density, 303.15 K [kg/m3] | mass density, 308.15 K [kg/m3] | viscosity, 298.15 K [mPa·s] | viscosity, 303.15 K [mPa·s] | viscosity, 308.15 K [mPa·s]
x2 = 0 | 1198.5 | 1193.6 | 1191.1 | 1.686 | 1.619 | 1.554
x2 = 0.0951 | 1160.4 | 1158 | 1156 | 1.589 | 1.527 | 1.489
x2 = 0.1908 | 1121.8 | 1119.7 | 1117.6 | 1.482 | 1.423 | 1.385
x2 = 0.2875 | 1080.5 | 1078 | 1075.5 | 1.369 | 1.313 | 1.276
x2 = 0.3866 | 1037.9 | 1035 | 1031.9 | 1.26 | 1.21 | 1.168
x2 = 0.4828 | 996 | 993 | 990 | 1.167 | 1.117 | 1.074
x2 = 0.5865 | 950.4 | 947.6 | 945 | 1.083 | 1.032 | 0.9873
x2 = 0.685 | 907.2 | 905 | 902.3 | 1.022 | 0.968 | 0.9182
x2 = 0.7901 | 861.6 | 860 | 856.6 | 0.9712 | 0.9142 | 0.8626
x2 = 0.896 | 816.9 | 814.4 | 809.1 | 0.9338 | 0.874 | 0.8182

O=[N+]([O-])c1ccccc1 [nitrobenzene] + O=C1CCCCC1
[2]
Conditions | mass density, 298.15 K [kg/m3] | mass density, 303.15 K [kg/m3] | mass density, 308.15 K [kg/m3] | speed of sound, 298.15 K [m/s] | speed of sound, 303.15 K [m/s] | speed of sound, 308.15 K [m/s] | viscosity, 298.15 K [mPa·s] | viscosity, 303.15 K [mPa·s] | viscosity, 308.15 K [mPa·s]
x2 = 0 | 1198.5 | 1193.6 | 1191.1 | 1648.4 | – | 1961 | 1.686 | 1.619 | 1.554
x2 = 0.098 | 1169.6 | 1167.6 | 1166.8 | 1696 | 1842.8 | 1991 | 1.752 | 1.645 | 1.556
x2 = 0.1946 | 1141.8 | 1140.8 | 1140.3 | 1733 | 1873 | 2019.9 | 1.785 | 1.666 | 1.557
x2 = 0.2933 | 1114.5 | 1113.4 | 1112.9 | 1764.1 | 1901.5 | 2041.5 | 1.802 | 1.678 | 1.559
x2 = 0.3938 | 1087.5 | 1085.6 | 1084.9 | 1790 | 1927.7 | 2058.6 | 1.812 | 1.685 | 1.561
x2 = 0.495 | 1061.3 | 1058.9 | 1057.9 | 1811.2 | 1945 | 2069.7 | 1.827 | 1.695 | 1.562
x2 = 0.592 | 1036.9 | 1034.5 | 1033.4 | 1825.7 | 1957 | 2076.4 | 1.848 | 1.704 | 1.565
x2 = 0.6945 | 1011.6 | 1009.6 | 1008.6 | 1839.8 | 1962 | 2080.5 | 1.879 | 1.721 | 1.567
x2 = 0.7966 | 987.5 | 985.7 | 985 | 1848.3 | 1963 | 2080 | 1.921 | 1.749 | 1.571
x2 = 0.8973 | 963.4 | 961.9 | 961.4 | 1853.5 | 1964.1 | 2081.5 | 1.97 | 1.778 | 1.577
